From PubChem BioAssay AID463237 (Sanford-Burnham Center for Chemical Genomics, 2010) come the findings set out here.

Converted amounts (≈) assume the structure as drawn.

The test system of this data set is aqueous solubility, 1x PBS pH 7.4, UV, 18 h. The data set is described as follows: compound solubility at pH 7.4 – biophysical, 1x PBS, ADME assay (AID 463237). Particulars: at 100 µM; stronger effect = higher value.

As a reminder, the solubility is the dissolved amount per volume that the medium holds. Regarding `CCCCn1c(NC(=O)c2ccc(F)cc2)c(C#N)c2nc3ccccc3nc21`, the solubility was 14 µg/mL (≈ 36.1 µM).
